Measurements: patent publication US12486274B2, “Substituted pyrazolo-pyrimidines and uses thereof” (Verge Analytics, Inc., priority 2020, dated 2025)

Biological target: Full length human recombinant PIKFYVE (Homo sapiens (Human), UniProt Q9Y2I7)
Experiment: Inhibition of PIKfyve (microfluidic electrophoresis kinase assay)
Type: biochemical
Details: 2 nM enzyme, PI3P/PS substrate, 3 h at room temperature, 12 concentrations
Summary of the method: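 GST-tagged full-length PIKfyve (baculovirus-expressed, 2 nM final) with fluorescent PI3P/PS substrate (1 μM PI3P) and […] in HEPES pH 7.5 with Mg2+/Mn2+, 1% DMSO, 3 h at room temperature; 12 concentrations. PI(3,5)P product and substrate separated by microfluidic electrophoresis; % inhibition from product/sum ratio.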

Sequence of Full length human recombinant PIKFYVE (Q9Y2I7 whole entry): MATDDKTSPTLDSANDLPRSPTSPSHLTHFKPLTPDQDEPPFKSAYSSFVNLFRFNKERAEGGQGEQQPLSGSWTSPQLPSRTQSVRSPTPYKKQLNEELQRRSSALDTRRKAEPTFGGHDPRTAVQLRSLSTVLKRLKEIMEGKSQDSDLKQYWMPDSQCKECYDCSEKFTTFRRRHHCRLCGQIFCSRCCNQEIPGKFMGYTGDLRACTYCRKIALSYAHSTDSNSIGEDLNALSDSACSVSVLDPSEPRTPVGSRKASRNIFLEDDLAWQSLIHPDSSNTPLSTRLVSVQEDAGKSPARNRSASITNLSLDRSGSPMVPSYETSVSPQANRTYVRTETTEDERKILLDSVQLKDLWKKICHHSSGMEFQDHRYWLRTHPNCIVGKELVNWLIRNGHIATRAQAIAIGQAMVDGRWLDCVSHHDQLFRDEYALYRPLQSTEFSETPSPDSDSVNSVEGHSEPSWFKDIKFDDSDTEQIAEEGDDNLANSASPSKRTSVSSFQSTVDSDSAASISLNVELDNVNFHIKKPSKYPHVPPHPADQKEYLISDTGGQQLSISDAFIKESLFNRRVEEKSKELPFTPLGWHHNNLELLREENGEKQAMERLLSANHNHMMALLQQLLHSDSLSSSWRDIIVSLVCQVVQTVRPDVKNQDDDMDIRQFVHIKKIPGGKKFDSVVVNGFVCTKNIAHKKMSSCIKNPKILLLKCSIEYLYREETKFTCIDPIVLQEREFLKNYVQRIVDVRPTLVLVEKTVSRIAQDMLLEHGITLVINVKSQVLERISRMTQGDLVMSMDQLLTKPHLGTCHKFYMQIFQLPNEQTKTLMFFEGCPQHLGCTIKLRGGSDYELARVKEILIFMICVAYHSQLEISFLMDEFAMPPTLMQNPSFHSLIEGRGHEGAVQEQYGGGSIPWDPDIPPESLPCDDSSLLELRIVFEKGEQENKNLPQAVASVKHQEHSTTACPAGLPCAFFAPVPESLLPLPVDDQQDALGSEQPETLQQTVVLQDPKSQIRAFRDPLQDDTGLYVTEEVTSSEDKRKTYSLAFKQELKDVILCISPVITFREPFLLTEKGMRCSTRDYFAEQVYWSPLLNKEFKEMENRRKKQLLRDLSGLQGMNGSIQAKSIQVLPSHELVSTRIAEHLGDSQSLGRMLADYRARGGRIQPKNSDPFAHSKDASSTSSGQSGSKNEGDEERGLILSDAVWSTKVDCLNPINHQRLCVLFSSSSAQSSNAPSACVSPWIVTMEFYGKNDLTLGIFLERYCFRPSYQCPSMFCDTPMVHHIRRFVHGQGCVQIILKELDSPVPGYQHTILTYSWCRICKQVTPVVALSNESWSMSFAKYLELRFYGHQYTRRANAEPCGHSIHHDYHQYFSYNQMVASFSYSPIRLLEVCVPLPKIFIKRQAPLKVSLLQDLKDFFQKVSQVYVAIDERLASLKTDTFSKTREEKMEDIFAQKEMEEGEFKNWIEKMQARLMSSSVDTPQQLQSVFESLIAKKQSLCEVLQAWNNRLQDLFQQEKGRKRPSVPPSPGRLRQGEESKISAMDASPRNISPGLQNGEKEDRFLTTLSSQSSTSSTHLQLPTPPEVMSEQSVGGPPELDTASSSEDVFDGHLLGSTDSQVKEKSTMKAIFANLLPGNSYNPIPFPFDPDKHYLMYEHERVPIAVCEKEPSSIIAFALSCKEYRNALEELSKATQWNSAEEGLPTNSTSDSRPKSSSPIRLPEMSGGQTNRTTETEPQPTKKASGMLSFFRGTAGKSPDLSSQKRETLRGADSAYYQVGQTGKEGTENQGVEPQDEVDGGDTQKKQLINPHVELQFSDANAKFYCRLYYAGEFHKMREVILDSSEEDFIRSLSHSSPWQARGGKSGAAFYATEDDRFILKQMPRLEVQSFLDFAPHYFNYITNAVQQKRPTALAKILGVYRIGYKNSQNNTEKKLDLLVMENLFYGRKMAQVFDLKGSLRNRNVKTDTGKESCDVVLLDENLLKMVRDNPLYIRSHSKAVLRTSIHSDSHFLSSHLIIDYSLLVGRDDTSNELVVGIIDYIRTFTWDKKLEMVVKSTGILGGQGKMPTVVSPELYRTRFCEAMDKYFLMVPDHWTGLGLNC

SMILES	IC50
Cc1cccc(-c2cnn(-c3cc(N4CCOCC4)n4nc(-c5ccncc5)cc4n3)c2)c1 [Example 10, 4-[5-[4-(m-tolyl)pyrazol-1-yl]-2-(4-pyridyl)pyrazolo[1,5-a]pyrimidin-7-yl]morpholine]	> 10000 nM
c1cc(-c2cnn(-c3cc(N4CCOCC4)n4nc(-c5ccncc5)cc4n3)c2)ccn1 [Example 11, 4-[2-(4-pyridyl)-5-[4-(4-pyridyl)pyrazol-1-yl]pyrazolo[1,5-a]pyrimidin-7-yl]morpholine]	2600 nM
Cc1cnn(-c2cc(N3CCOCC3)n3nc(-c4ccncc4)cc3n2)c1 [Example 12, 4-[5-(4-methylpyrazol-1-yl)-2-(4-pyridyl)pyrazolo[1,5-a]pyrimidin-7-yl]morpholine]	> 10000 nM
c1ccc(-c2ccn(-c3cc(N4CCOCC4)n4nc(-c5ccncc5)cc4n3)n2)cc1 [Example 13, 4-[5-(3-phenylpyrazol-1-yl)-2-(4-pyridyl)pyrazolo[1,5-a]pyrimidin-7-yl]morpholine]	207 nM
c1cc(-c2ccn(-c3cc(N4CCOCC4)n4nc(-c5ccncc5)cc4n3)n2)ccn1 [Example 15, 4-[2-(4-pyridyl)-5-[3-(4-pyridyl)pyrazol-1-yl]pyrazolo[1,5-a]pyrimidin-7-yl]morpholine]	1100 nM
Cc1ccn(-c2cc(N3CCOCC3)n3nc(-c4ccncc4)cc3n2)n1 [Example 16, 4-[5-(3-methylpyrazol-1-yl)-2-(4-pyridyl)pyrazolo[1,5-a]pyrimidin-7-yl]morpholine]	> 10000 nM
CCNC(=O)c1cc2nc(-n3ccc(-c4cccc(C)c4)n3)cc(N3CCOCC3)n2n1 [Example 19, N-ethyl-7-morpholino-5-(3-(m-tolyl)-1H-pyrazol-1-yl)pyrazolo[1,5-a]pyrimidine-2-carboxamide]	76.2 nM
COCCNC(=O)c1cc2nc(-n3ccc(-c4cccc(C)c4)n3)cc(N3CCOCC3)n2n1 [Example 23, N-(2-methoxyethyl)-7-morpholino-5-(3-(m-tolyl)-1H-pyrazol-1-yl)pyrazolo[1,5-a]pyrimidine-2-carboxamide]	81.5 nM
Cc1cccc(-c2ccn(-c3cc(N4CCOCC4)n4nc(C(=O)N(C)C)cc4n3)n2)c1 [Example 24, N,N-dimethyl-7-morpholino-5-(3-(m-tolyl)-1H-pyrazol-1-yl)pyrazolo[1,5-a]pyrimidine-2-carboxamide]	276 nM
CCN(C)C(=O)c1cc2nc(-n3ccc(-c4cccc(C)c4)n3)cc(N3CCOCC3)n2n1 [Example 25, N-ethyl-N-methyl-7-morpholino-5-(3-(m-tolyl)-1H-pyrazol-1-yl)pyrazolo[1,5-a]pyrimidine-2-carboxamide]	437 nM
Cc1cccc(-c2ccn(-c3cc(N4CCOCC4)n4nc(C(=O)N(C)C5CC5)cc4n3)n2)c1 [Example 26, N-cyclopropyl-N-methyl-7-morpholino-5-(3-(m-tolyl)-1H-pyrazol-1-yl)pyrazolo[1,5-a]pyrimidine-2-carboxamide]	162 nM
Cc1cccc(-c2ccn(-c3cc(N4CCOCC4)n4nc(C(=O)NCC5CC5)cc4n3)n2)c1 [Example 27, N-(cyclopropylmethyl)-7-morpholino-5-(3-(m-tolyl)-1H-pyrazol-1-yl)pyrazolo[1,5-a]pyrimidine-2-carboxamide]	73.7 nM
Cc1cccc(-c2ccn(-c3cc(N4CCOCC4)n4nc(C(=O)N5CCC5)cc4n3)n2)c1 [Example 28, azetidin-1-yl(7-morpholino-5-(3-(m-tolyl)-1H-pyrazol-1-yl)pyrazolo[1,5-a]pyrimidin-2-yl)methanone]	137 nM
Cc1cccc(-c2ccn(-c3cc(N4CCOCC4)n4nc(C(=O)N5CCCC5)cc4n3)n2)c1 [Example 29, (7-morpholino-5-(3-(m-tolyl)-1H-pyrazol-1-yl)pyrazolo[1,5-a]pyrimidin-2-yl) (pyrrolidin-1-yl)methanone]	94.6 nM
Cc1cccc(-c2ccn(-c3cc(N4CCOCC4)n4nc(C(=O)N5CCCCC5)cc4n3)n2)c1 [Example 30, (7-morpholino-5-(3-(m-tolyl)-1H-pyrazol-1-yl)pyrazolo[1,5-a]pyrimidin-2-yl)(piperidin-1-yl)methanone]	247 nM
Cc1cccc(-c2ccn(-c3cc(N4CCOCC4)n4nc(C(=O)N5CCOCC5)cc4n3)n2)c1 [Example 31, morpholino (7-morpholino-5-(3-(m-tolyl)-1H-pyrazol-1-yl)pyrazolo[1,5-a]pyrimidin-2-yl)methanone]	242 nM
Cc1cccc(-c2ccn(-c3cc(N4CCOCC4)n4nc(C(=O)N5CCN(C)CC5)cc4n3)n2)c1 [Example 32, (4-methylpiperazin-1-yl) (7-morpholino-5-(3-(m-tolyl)-1H-pyrazol-1-yl)pyrazolo[1,5-a]pyrimidin-2-yl)methanone]	254 nM
CON(C)C(=O)c1cc2nc(-n3ccc(-c4cccc(C)c4)n3)cc(N3CCOCC3)n2n1 [Example 33, N-methoxy-N-methyl-7-morpholino-5-(3-(m-tolyl)-1H-pyrazol-1-yl)pyrazolo[1,5-a]pyrimidine-2-carboxamide]	113 nM
Cc1cccc(-c2ccn(-c3cc(N4CCOCC4)n4nc(C(=O)NS(C)(=O)=O)cc4n3)n2)c1 [Example 35, N-(methylsulfonyl)-7-morpholino-5-(3-(m-tolyl)-1H-pyrazol-1-yl)pyrazolo[1,5-a]pyrimidine-2-carboxamide]	422 nM
Cc1cccc(-c2ccn(-c3cc(N4CCOCC4)n4nc(C(=O)N(C)C5CCCC5)cc4n3)n2)c1 [Example 37, N-cyclopentyl-N-methyl-7-morpholino-5-(3-(m-tolyl)-1H-pyrazol-1-yl)pyrazolo[1,5-a]pyrimidine-2-carboxamide]	213 nM
Cc1cccc(-c2ccn(-c3cc(N4CCOCC4)n4nc(C(=O)NC(C)C)cc4n3)n2)c1 [Example 38, N-isopropyl-7-morpholino-5-(3-(m-tolyl)-1H-pyrazol-1-yl)pyrazolo[1,5-a]pyrimidine-2-carboxamide]	25.7 nM
COCC(COC)NC(=O)c1cc2nc(-n3ccc(-c4cccc(C)c4)n3)cc(N3CCOCC3)n2n1 [Example 39, N-(1,3-dimethoxypropan-2-yl)-7-morpholino-5-(3-(m-tolyl)-1H-pyrazol-1-yl)pyrazolo[1,5-a]pyrimidine-2-carboxamide]	99.6 nM
Cc1cccc(-c2ccn(-c3cc(N4CCOCC4)n4nc(C(=O)NCCN(C)C)cc4n3)n2)c1 [Example 40, N-(2-(dimethylamino)ethyl)-7-morpholino-5-(3-(m-tolyl)-1H-pyrazol-1-yl)pyrazolo[1,5-a]pyrimidine-2-carboxamide]	258 nM
Cc1cccc(-c2ccn(-c3cc(N4CCOCC4)n4nc(C(=O)NC5COC5)cc4n3)n2)c1 [Example 42, 7-morpholino-N-(oxetan-3-yl)-5-(3-(m-tolyl)-1H-pyrazol-1-yl)pyrazolo[1,5-a]pyrimidine-2-carboxamide]	63.3 nM
Cc1cccc(-c2ccn(-c3cc(N4CCOCC4)n4nc(C(=O)NCC5(CO)COC5)cc4n3)n2)c1 [Example 44, N-((3-(hydroxymethyl)oxetan-3-yl)methyl)-7-morpholino-5-(3-(m-tolyl)-1H-pyrazol-1-yl)pyrazolo[1,5-a]pyrimidine-2-carboxamide]	79 nM
Cc1cccc(-c2ccn(-c3cc(N4CCOCC4)n4nc(C(=O)N5CC6(COC6)C5)cc4n3)n2)c1 [Example 45, (7-morpholino-5-(3-(m-tolyl)-1H-pyrazol-1-yl)pyrazolo[1,5-a]pyrimidin-2-yl) (2-oxa-6-azaspiro[3.3]heptan-6-yl)methanone]	105 nM
Cc1cccc(-c2ccn(-c3cc(N4CCOCC4)n4nc(C(=O)N5CCC56COC6)cc4n3)n2)c1 [Example 46, (7-morpholino-5-(3-(m-tolyl)-1H-pyrazol-1-yl)pyrazolo[1,5-a]pyrimidin-2-yl) (6-oxa-1-azaspiro[3.3]heptan-1-yl)methanone]	113 nM
Cc1cccc(-c2ccn(-c3cc(N4CCOCC4)n4nc(C(=O)NOC5COC5)cc4n3)n2)c1 [Example 47, 7-morpholino-N-(oxetan-3-yloxy)-5-(3-(m-tolyl)-1H-pyrazol-1-yl)pyrazolo[1,5-a]pyrimidine-2-carboxamide]	122 nM
